This note sets out measurements from patent US20240109864A1, “SUBSTITUTED PYRAZOLYL PIPERIDINE CARBOXYLIC ACIDS” (BAYER AKTIENGESELLSCHAFT, priority 2020, published 2024).

Structures are written as SMILES. Counter-ions that a name gives are not always drawn.

The experiment deals with T1, recombinant guanylate cyclase reporter cell line (Rattus norvegicus, UniProt P20595).
T1 construct: expressed in transfected cells
T1 sequence (P20595 1-619): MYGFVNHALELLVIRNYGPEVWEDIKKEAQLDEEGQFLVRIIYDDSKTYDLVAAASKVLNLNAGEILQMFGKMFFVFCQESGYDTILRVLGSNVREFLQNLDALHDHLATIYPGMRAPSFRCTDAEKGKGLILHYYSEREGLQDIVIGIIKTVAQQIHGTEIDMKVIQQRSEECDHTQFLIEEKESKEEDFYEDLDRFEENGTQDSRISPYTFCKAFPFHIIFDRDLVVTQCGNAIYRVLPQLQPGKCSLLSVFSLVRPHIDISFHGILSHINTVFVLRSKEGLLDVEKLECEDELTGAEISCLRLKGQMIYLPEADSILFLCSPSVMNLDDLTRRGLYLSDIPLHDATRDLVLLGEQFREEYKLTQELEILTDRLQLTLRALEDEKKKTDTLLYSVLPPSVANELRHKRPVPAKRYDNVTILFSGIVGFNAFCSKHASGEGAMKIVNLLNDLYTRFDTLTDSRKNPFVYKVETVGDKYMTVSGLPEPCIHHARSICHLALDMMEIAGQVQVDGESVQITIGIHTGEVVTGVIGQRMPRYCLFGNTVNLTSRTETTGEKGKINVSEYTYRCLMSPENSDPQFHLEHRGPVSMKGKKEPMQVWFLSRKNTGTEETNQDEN
T1 sequence (P19686 1-690 partner): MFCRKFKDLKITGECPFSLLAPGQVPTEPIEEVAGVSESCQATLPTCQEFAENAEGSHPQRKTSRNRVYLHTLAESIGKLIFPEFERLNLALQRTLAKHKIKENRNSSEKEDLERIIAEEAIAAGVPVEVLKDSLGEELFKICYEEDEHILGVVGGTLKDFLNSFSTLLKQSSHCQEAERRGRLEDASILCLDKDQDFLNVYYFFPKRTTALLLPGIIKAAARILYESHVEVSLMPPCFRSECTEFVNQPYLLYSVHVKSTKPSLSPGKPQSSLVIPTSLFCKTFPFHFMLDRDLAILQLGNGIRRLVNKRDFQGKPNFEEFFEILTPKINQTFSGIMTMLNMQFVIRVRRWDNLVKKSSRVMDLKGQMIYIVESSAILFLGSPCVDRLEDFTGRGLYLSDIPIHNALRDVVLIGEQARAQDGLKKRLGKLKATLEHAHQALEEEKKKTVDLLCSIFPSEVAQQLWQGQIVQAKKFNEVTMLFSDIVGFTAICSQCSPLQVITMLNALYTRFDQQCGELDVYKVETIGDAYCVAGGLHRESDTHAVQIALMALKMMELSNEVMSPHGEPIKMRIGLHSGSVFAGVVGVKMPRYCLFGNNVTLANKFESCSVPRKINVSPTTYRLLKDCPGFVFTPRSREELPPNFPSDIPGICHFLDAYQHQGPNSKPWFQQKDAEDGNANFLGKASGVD
As to the kind of experiment: Effect on a recombinant guanylate cyclase reporter cell line. The format is cell-based. As to conditions: in some cases mean values from individual determinations; for MEC: MEC = minimum effective concentration; for EC50: half maximal effective concentration. As to the method:
The cellular activity of the compounds according to the invention was determined using a recombinant guanylate cyclase reporter cell line, as described in F. Wunder et al., Anal. Biochem. 339, 104-112 (2005).

For orientation: EC50 means the concentration that produces a half-maximal response.

`CC(C)(C)CN1CCN(c2ccc(-c3ccc(Cl)cc3N3CCCC(n4ncc(C(=O)O)c4C(F)(F)F)C3)cc2)CC1` (single isomer, unassigned) [Example 18, 1-[1-[5-Chloro-2-[4-[4-(2,2-dimethylpropyl)piperazin-1-yl]phenyl]phenyl]-3-piperidyl]-5-(trifluoromethyl)pyrazole-4-carboxylic acid hydrochloride]: the MEC came to 10.0 nM and the concentration giving a half-maximal response (EC50) came to 0.0635 µM.

Regarding `O=C(O)c1cnn(C2CCCN(c3cc(Cl)ccc3-c3ccc(N4CCN(CC5CCC5)CC4)cc3)C2)c1C(F)(F)F` (single isomer, unassigned) [Example 19, 1-[1-[5-Chloro-2-[4-[4-(cyclobutylmethyl)piperazin-1-yl]phenyl]phenyl]-3-piperidyl]-5-(trifluoromethyl)pyrazole-4-carboxylic acid hydrochloride], the MEC is on record as 3.0 nM and the EC50 was determined as 0.0265 µM.

For the molecule `O=C(O)c1cnn(C2CCCN(c3cc(Cl)ccc3-c3ccc(N4CCN(CC5CC(F)(F)C5)CC4)cc3)C2)c1C(F)(F)F` (single isomer, unassigned) [Example 20, 1-[1-[5-Chloro-2-[4-[4-[(3,3-difluorocyclobutyl)methyl]piperazin-1-yl]phenyl]phenyl]-3-piperidyl]-5-(trifluoromethyl)pyrazole-4-carboxylic acid hydrochloride], the EC50 was determined as 0.0036 µM. Also, the MEC (hydrochloride) came out at 1.0 nM.

As for `O=C(O)c1cnn(C2CCCN(c3cc(Cl)ccc3-c3ccc(N4CCN(CC5CC(F)(F)C5)CC4)cc3)C2)c1C(F)(F)F` (single isomer, unassigned) [Example 21, 1-[1-[5-Chloro-2-[4-[4-[(3,3-difluorocyclobutyl)methyl]piperazin-1-yl]phenyl]phenyl]-3-piperidyl]-5-(trifluoromethyl)pyrazole-4-carboxylic acid hydrochloride], the concentration for a half-maximal effect (EC50) came to 0.027 µM. For the same molecule, for the setting “hydrochloride”, the MEC was determined as 3.0 nM.

Regarding `O=C(O)c1cnn(C2CCCN(c3cc(Cl)ccc3-c3ccc(N4CCN(CC5CC(F)C5)CC4)cc3)C2)c1C(F)(F)F` (single isomer, unassigned) [Example 22, 1-[1-[5-Chloro-2-[4-[4-[(3-fluorocyclobutyl)methyl]piperazin-1-yl]phenyl]phenyl]-3-piperidyl]-5-(trifluoromethyl)pyrazole-4-carboxylic acid hydrochloride], the MEC worked out at 2.0 nM and the EC50 turned out to be 0.0114 µM.

Turning to `O=C(O)c1cnn(C2CCCN(c3cc(Cl)ccc3-c3ccc(N4CCN(CC5(F)CCC5)CC4)cc3)C2)c1C(F)(F)F` (single isomer, unassigned) [Example 23, 1-[1-[5-Chloro-2-[4-[4-[(1-fluorocyclobutyl)methyl]piperazin-1-yl]phenyl]phenyl]-3-piperidyl]-5-(trifluoromethyl)pyrazole-4-carboxylic acid hydrochloride], the MEC stood at 3.0 nM and the EC50 amounted to 0.0275 µM.

Turning to `O=C(O)c1cnn(C2CCCN(c3cc(Cl)ccc3-c3ccc(N4CCN(CC56CC(F)(C5)C6)CC4)cc3)C2)c1C(F)(F)F` (single isomer, unassigned) [Example 24, 1-[1-[5-Chloro-2-[4-[4-[(3-fluoro-1-bicyclo[1.1.1]pentanyl)methyl]piperazin-1-yl]phenyl]phenyl]-3-piperidyl]-5-(trifluoromethyl)pyrazole-4-carboxylic acid hydrochloride], the MEC amounted to 3.0 nM and the EC50 was 0.0127 µM.

As to `O=C(O)c1cnn(C2CCCN(c3cc(Cl)ccc3-c3ccc(N4CCN(CC5CC5F)CC4)cc3)C2)c1C(F)(F)F` (single isomer, unassigned) [Example 25, 1-[1-[5-Chloro-2-[4-[4-[[2-fluorocyclopropyl]methyl]piperazin-1-yl]phenyl]phenyl]-3-piperidyl]-5-(trifluoromethyl)pyrazole-4-carboxylic acid hydrochloride], the EC50 was 0.022 µM. Besides, the MEC (hydrochloride) is on record as 10.0 nM.

On to `O=C(O)c1cnn(C2CCCN(c3cc(Cl)ccc3-c3ccc(N4CCN(CC5CC5F)CC4)cc3)C2)c1C(F)(F)F` (single isomer, unassigned) [Example 26, 1-[1-[5-Chloro-2-[4-[4-[[2-trans-fluorocyclopropyl]methyl]piperazin-1-yl]phenyl]phenyl]-3-piperidyl]-5-(trifluoromethyl)pyrazole-4-carboxylic acid hydrochloride], for which the EC50 worked out at 0.0052 µM. In addition, the MEC (hydrochloride) is listed as 1.0 nM.

For `O=C(O)c1cnn(C2CCCN(c3cc(Cl)ccc3-c3ccc(N4CCN(CC5C[C@@H]5F)CC4)cc3)C2)c1C(F)(F)F` (single isomer, unassigned) [Example 27, 1-[1-[5-Chloro-2-[4-[4-[[2-fluorocyclopropyl]methyl]piperazin-1-yl]phenyl]phenyl]-3-piperidyl]-5-(trifluoromethyl)pyrazole-4-carboxylic acid hydrochloride], the MEC worked out at 3.0 nM and the EC50 was determined as 0.015 µM.

Turning to `O=C(O)c1cnn(C2CCCN(c3cc(Cl)ccc3-c3ccc(N4CCN(C[C@@H]5C[C@@H]5F)CC4)cc3)C2)c1C(F)(F)F` (single isomer, unassigned) [Example 28, hydrochloride], the concentration giving a half-maximal response (EC50) turned out to be 0.0055 µM. Besides, the MEC (hydrochloride) came out at 3.0 nM.

Regarding `O=C(O)c1cnn(C2CCCN(c3cc(Cl)ccc3-c3ccc(N4CCN(C[C@H]5C[C@H]5F)CC4)cc3)C2)c1C(F)(F)F` (single isomer, unassigned) [Example 29, hydrochloride], the MEC worked out at 0.3 nM and the EC50 worked out at 0.0069 µM.

With `O=C(O)c1cnn(C2CCCN(c3cc(Cl)ccc3-c3ccc(N4CCN(CC5CC56CC6)CC4)cc3)C2)c1C(F)(F)F` (single isomer, unassigned) [Example 30, 1-[1-[5-Chloro-2-[4-[4-(spiro[2.2]pentan-2-ylmethyl)piperazin-1-yl]phenyl]phenyl]-3-piperidyl]-5-(trifluoromethyl)pyrazole-4-carboxylic acid hydrochloride], the MEC is 3.0 nM and the concentration giving a half-maximal response (EC50) came out at 0.0089 µM.

As to `O=C(O)c1cnn(C2CCCN(c3cc(Cl)ccc3-c3ccc(N4CCN(CC5CC5C(F)(F)F)CC4)cc3)C2)c1C(F)(F)F` (single isomer, unassigned) [Example 32, 1-[1-[5-Chloro-2-[4-[4-[[2-(trifluoromethyl)cyclopropyl]methyl]piperazin-1-yl]phenyl]phenyl]-3-piperidyl]-5-(trifluoromethyl)pyrazole-4-carboxylic acid hydrochloride], the EC50 stood at 0.0093 µM. Moreover, under “hydrochloride”, the MEC came to 3.0 nM.

`O=C(O)c1cnn(C2CCCN(c3cc(Cl)ccc3-c3ccc(N4CCN(CC5CC5C(F)(F)F)CC4)cc3)C2)c1C(F)(F)F` (single isomer, unassigned) [Example 33, 1-[1-[5-Chloro-2-[4-[4-[[2-(trifluoromethyl)cyclopropyl]methyl]piperazin-1-yl]phenyl]phenyl]-3-piperidyl]-5-(trifluoromethyl)pyrazole-4-carboxylic acid hydrochloride]: the EC50 worked out at 0.0375 µM. The MEC (hydrochloride) is recorded as 10.0 nM.

On to `O=C(O)c1cnn(C2CCCN(c3cc(Cl)ccc3-c3ccc(N4CCN(CC5(C(F)(F)F)CC5)CC4)cc3)C2)c1C(F)(F)F` (single isomer, unassigned) [Example 34, 1-[1-[5-Chloro-2-[4-[4-[[1-(trifluoromethyl)cyclopropyl]methyl]piperazin-1-yl]phenyl]phenyl]-3-piperidyl]-5-(trifluoromethyl)pyrazole-4-carboxylic acid hydrochloride], for which the MEC is 10.0 nM and the concentration giving a half-maximal response (EC50) stood at 0.0405 µM.

Consider `O=C(O)c1cnn(C2CCCN(c3cc(Cl)ccc3-c3ccc(N4CCN(CCOC(F)(F)F)CC4)cc3)C2)c1C(F)(F)F` (single isomer, unassigned) [Example 35, 1-[1-[5-Chloro-2-[4-[4-[2-(trifluoromethoxy)ethyl]piperazin-1-yl]phenyl]phenyl]-3-piperidyl]-5-(trifluoromethyl)pyrazole-4-carboxylic acid hydrochloride], for which the MEC amounted to 3.0 nM and the EC50 amounted to 0.0175 µM.
